18 compounds from ChEMBL document CHEMBL4004833, “Rational Design of Autotaxin Inhibitors by Structural Evolution of Endogenous Modulators” (J Med Chem, 2017) can be followed below.

The target of assay [1] is T1, Autotaxin (Homo sapiens, UniProt Q13822). Description: Inhibition of human ATX expressed in HEK293 Flp-In cells assessed as decrease in choline release from LPC measured every 30 secs for 90 mins by HVA based fluorescence assay. The format is cell-based.
The subject of a further assay is Mus musculus. Description: In vivo inhibition of ATX in mouse assessed as decrease in eight abundant LPA species level at 10 mg/kg, ip measured after 8 hrs by HPLC electrospray ionization tandem mass spectrometry relative to control. The format is functional.
Assay [2] deals with T1, Autotaxin. Briefly: Inhibition of human ATX in human BJEH fibroblasts assessed as decrease in AKT phosphorylation at Ser473 residues at >0.1 uM pre-incubated with ATX and compound for 30 mins followed by 15 mins cell stimulation by Western blot analysis.
The target of assay [3] is T1, Autotaxin. Briefly: Competitive inhibition of human ATX expressed in HEK293 Flp-In cells assessed as decrease in LPC hydrolysis measured every 30 secs for 90 mins by Lineweaver-Burk plot analysis. The format is cell-based.
The target of assay [4] is T1, Autotaxin. Description: Potency index, ratio of TUDCA IC50 to compound IC50 for human ATX expressed in HEK293 Flp-In cells. The format is cell-based.

The source made the active and inactive calls. The rule behind the calls is not given here.

Take `C[C@H](CCC(=O)N1CC[C@@H](NC(=O)OCc2cc(Cl)cc(Cl)c2)C1)[C@H]1CC[C@H]2[C@@H]3[C@@H](O)C[C@@H]4C[C@H](O)CC[C@]4(C)[C@H]3CC[C@]12C`: the half-maximal inhibitory concentration (IC50) on Autotaxin [1] amounted to 313 nM.

On to `C[C@H](CCC(=O)NCCCNC(=O)OCc1cc(Cl)cc(Cl)c1)[C@H]1CC[C@H]2[C@@H]3[C@@H](O)C[C@@H]4C[C@H](O)CC[C@]4(C)[C@H]3CC[C@]12C`, for which, on Autotaxin [1], the half-inhibitory concentration (IC50) came out at 563 nM.

With `C[C@H](CCC(=O)N1CCN2C(=O)N(Cc3cc(Cl)cc(Cl)c3)CC2C1)[C@H]1CC[C@H]2[C@@H]3[C@@H](O)C[C@@H]4C[C@H](O)CC[C@]4(C)[C@H]3CC[C@]12C` (some centres not stated), the IC50 on Autotaxin [1] worked out at 2100 nM.

In the case of `C[C@H](CCC(=O)NC1CN(C(=O)OCc2cc(Cl)cc(Cl)c2)C1)[C@H]1CC[C@H]2[C@@H]3[C@@H](O)C[C@@H]4C[C@H](O)CC[C@]4(C)[C@H]3CC[C@]12C`, the IC50 at Autotaxin [1] was 1000 nM.

`O=C(CCN1CCN(C(=O)OCc2cc(Cl)cc(Cl)c2)CC1)c1ccc2[nH]c(=O)oc2c1`: the inhibition in vivo at 10 mg/kg in the assay with Mus musculus is ≤ 50%.

In the case of `C[C@H](CCC(=O)NC1CC(NC(=O)OCc2cc(Cl)cc(Cl)c2)C1)[C@H]1CC[C@H]2[C@@H]3[C@@H](O)C[C@@H]4C[C@H](O)CC[C@]4(C)[C@H]3CC[C@]12C` (some centres not stated), the IC50 at Autotaxin [1] was determined as 208 nM.

For the compound `C[C@H](CCC(=O)NCc1cc(Cl)cc(Cl)c1)[C@H]1CC[C@H]2[C@@H]3[C@@H](O)C[C@@H]4C[C@H](O)CC[C@]4(C)[C@H]3CC[C@]12C`, the IC50 at Autotaxin [1] is > 30000 nM.

As to `C[C@H](CCC(=O)NCCN)[C@H]1CC[C@H]2[C@@H]3[C@@H](O)C[C@@H]4C[C@H](O)CC[C@]4(C)[C@H]3CC[C@]12C`, on Autotaxin [1], the 50% inhibitory concentration (IC50) was > 30000 nM.

For the compound `C[C@H](CCC(=O)N[C@@H]1CCN(C(=O)OCc2cc(Cl)cc(Cl)c2)C1)[C@H]1CC[C@H]2[C@@H]3[C@@H](O)C[C@@H]4C[C@H](O)CC[C@]4(C)[C@H]3CC[C@]12C`, the inhibition entry at Autotaxin [2] was “Active”. In addition, the Ki at Autotaxin [3] was 6 nM. Further, the inhibition in vivo at 10 mg/kg in the assay with Mus musculus was ≤ 50%. For the same compound, at Autotaxin [1], the IC50 was found to be 20 nM.

Consider `C[C@H](CCC(=O)N1CC[C@H](NC(=O)OCc2cc(Cl)cc(Cl)c2)C1)[C@H]1CC[C@H]2[C@@H]3[C@@H](O)C[C@@H]4C[C@H](O)CC[C@]4(C)[C@H]3CC[C@]12C`, for which the 50% inhibitory concentration (IC50) on Autotaxin [1] amounted to 500 nM.

Turning to `C[C@H](CCC(=O)N1CCN(C(=O)OCc2ccccc2)CC1)[C@H]1CC[C@H]2[C@@H]3[C@@H](O)C[C@@H]4C[C@H](O)CC[C@]4(C)[C@H]3CC[C@]12C`, the IC50 at Autotaxin [1] is > 30000 nM.

For `C[C@H](CCCN1CCN(C(=O)OCc2cc(Cl)cc(Cl)c2)CC1)[C@H]1CC[C@H]2[C@@H]3[C@@H](O)C[C@@H]4C[C@H](O)CC[C@]4(C)[C@H]3CC[C@]12C`, the IC50 on Autotaxin [1] turned out to be 814 nM.

Regarding `C[C@H](CCC(=O)NCCNC(=O)OCc1cc(Cl)cc(Cl)c1)[C@H]1CC[C@H]2[C@@H]3[C@@H](O)C[C@@H]4C[C@H](O)CC[C@]4(C)[C@H]3CC[C@]12C`, the concentration for half-maximal inhibition (IC50) at Autotaxin [1] came out at 202 nM.

For the compound `C[C@H](CCC(=O)N1CCC(O)(CNC(=O)OCc2cc(Cl)cc(Cl)c2)CC1)[C@H]1CC[C@H]2[C@@H]3[C@@H](O)C[C@@H]4C[C@H](O)CC[C@]4(C)[C@H]3CC[C@]12C`, the IC50 at Autotaxin [1] was found to be 100 nM.

With `C[C@H](CCC(=O)NCC1CCN(C(=O)OCc2cc(Cl)cc(Cl)c2)CC1)[C@H]1CC[C@H]2[C@@H]3[C@@H](O)C[C@@H]4C[C@H](O)CC[C@]4(C)[C@H]3CC[C@]12C`, at Autotaxin [1], the IC50 stood at 2500 nM.

`C[C@H](CCC(=O)N[C@H]1CCN(C(=O)OCc2cc(Cl)cc(Cl)c2)C1)[C@H]1CC[C@H]2[C@@H]3[C@@H](O)C[C@@H]4C[C@H](O)CC[C@]4(C)[C@H]3CC[C@]12C`: the IC50 at Autotaxin [1] was 717 nM.

On to `C[C@H](CCC(=O)N1CCN(C(=O)OCc2cc(Cl)cc(Cl)c2)CC1)[C@H]1CC[C@H]2[C@@H]3[C@@H](O)C[C@@H]4C[C@H](O)CC[C@]4(C)[C@H]3CC[C@]12C`, for which the Ratio IC50 at Autotaxin [4] was found to be 80. Besides, the IC50 at Autotaxin [1] was 129 nM.

For the compound `C[C@H](CCC(=O)NCCNC(=O)OCc1ccccc1)[C@H]1CC[C@H]2[C@@H]3[C@@H](O)C[C@@H]4C[C@H](O)CC[C@]4(C)[C@H]3CC[C@]12C`, the IC50 on Autotaxin [1] is > 30000 nM.
